Experiments:
human P2X2 receptor [1] = target: T1, human P2X2 receptor (Homo sapiens, UniProt Q9UBL9); experiment: GCaMP calcium assay of P2X2 expressed in yeast S. cerevisiae, agonist response; format: cell-based; details: yeast; for EC50: read-out: EC50
T1 construct: expressed in transfected cells; host or cells: S. cerevisiae BY4741 background, P2X2 genome-integrated under a galactose-inducible promoter
T1 sequence (Q9UBL9 1-471): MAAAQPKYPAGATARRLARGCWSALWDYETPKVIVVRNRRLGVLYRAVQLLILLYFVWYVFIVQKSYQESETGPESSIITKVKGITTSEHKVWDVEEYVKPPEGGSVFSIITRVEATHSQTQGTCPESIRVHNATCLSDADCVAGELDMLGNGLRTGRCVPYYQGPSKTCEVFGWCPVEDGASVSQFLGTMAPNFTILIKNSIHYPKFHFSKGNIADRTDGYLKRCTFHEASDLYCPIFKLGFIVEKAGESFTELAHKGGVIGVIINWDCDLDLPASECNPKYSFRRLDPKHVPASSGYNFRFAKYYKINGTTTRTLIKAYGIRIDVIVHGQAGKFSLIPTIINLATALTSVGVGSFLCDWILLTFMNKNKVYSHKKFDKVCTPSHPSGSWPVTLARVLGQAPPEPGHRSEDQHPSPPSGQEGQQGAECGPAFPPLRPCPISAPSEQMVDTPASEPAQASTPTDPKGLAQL
Description: Although P2X receptors are expressed in many eukaryotic organisms including some fungi ([24]), they are not present in S. cerevisiae. For recombinant expression to yield functional P2X channels, receptor proteins must be correctly folded, assembled into trimers, and efficiently trafficked to the plasma membrane. To assess whether P2X ion channels could functionally gate in S. cerevisiae the canonical isoforms of P2X1-7 were co-expressed with aequorin, a calcium-activated photoprotein from the jellyfish Aequorea victoria.
(§1) Genetic knockouts of the calnexin homolog (ΔCne1p) and vacuolar calcium transporter (Δ Vcx1p) (n = 3) were compared to the WT yeast strain (n = 2). […] Statistical analysis was performed using one-way ANOVA with Dunnett’s multiple comparisons test where ∗∗ is p ≤ 0.01. […] Yeast were injected with ATP at 21 s and onset rates from the last six points (40–48 s) were used for calculating the dose response in (D). E and F, kinetic and dose–response measurements of P2X2 with the GCaMP reporter with ATP (n = 4), partial agonist BzATP (n = 3), and agonist 2-chloro-ATP (n = 4). Figures (D and F) share the figure legend with (C). […] Suramin was pre-equilibrated with P2X2-yeast for 10 min and 5 μM ATP was injected.
To expand the assay throughput to accommodate several 96-well plates at a time, we required the acquisition of short-duration signals. Since GCaMP signals are typically measured in terms of ΔF/F0, where ΔF is Fmax-Fmin, and since the signal takes several minutes to reach Fmax, we instead attempted to correlate the rate of signal onset (rather than its amplitude) with channel activity.
Having optimized our yeast strains and assay throughput, we sought to further validate the function of human P2X2 in the yeast host.
GCaMP assays were performed as follows. P2X2 GCaMP strains were designed with a bi-cistronic reporter, in which the GCaMP protein was followed by a 2A peptide and a mScarletI reporter ([53]). The co-translated mScarletI was designed to act as a control for plasmid loss, GCaMP breakage via nonsense mutation, and contamination. […] P2X2-GCaMP strains were cultured and induced as previously described. Samples were induced for 24 h to allow for the accumulation of the mature GCaMP protein. Cells were washed three times in 0.1 M MES/Tris buffer and resuspended with MES/Tris with supplemental calcium. Cells were loaded onto a black, clear bottom microplate and imaged on a FlexStation3 plate reader. Samples were imaged in “flex” mode. Samples were imaged for 48 s at an interval of 1.6 s. Fluorescence was measured with an excitation at 485 nm, and emission 525 nm. At the 21 s mark, 100 μl ligand solution was transferred to the cells. For strains with mScarlet, fluorescence was read with excitation 570 nm/emission 610 nm. Slopes were calculated from the last 6 points of measurement and were normalized to the positive control samples. Any replicate in which the mScarlet value was measured to be over 2 standard deviations less than the mean for that set was discarded from further analysis.

P2X2 [2] = details: mammalian cells; cited from earlier work
human P2X2 receptor [3] = target: T1, human P2X2 receptor; experiment: Suramin inhibition of ATP-stimulated P2X2 gating in yeast, GCaMP; format: cell-based; details: suramin pre-equilibrated 10 min, 5 μM ATP injected, n = 4; read-out: IC50 (second value in brackets) (converted)
Experimental: as §1, with “injected. […]” for “injected.”
GCaMP assays were performed as follows. […] Cells were loaded onto a black, clear bottom microplate and imaged on a FlexStation3 plate reader. […] Fluorescence was measured with an excitation at 485 nm, and emission 525 nm. […] For strains with mScarlet, fluorescence was read with excitation 570 nm/emission 610 nm. Slopes were calculated from the last 6 points of measurement and were normalized to the positive control samples. Any replicate in which the mScarlet value was measured to be over 2 standard deviations less than the mean for that set was discarded from further analysis.

P2X2 [4] = system: P2X2; set-up: method as in PMID 12885270; details: read-out: reported IC50 values; cited from earlier work
[5] = kinetic and dose-response GCaMP assay, Fig. 1E-F

IC50 (human P2X2 receptor [3]) [nM]	Compound	peak amplitudes relative to the canonical ATP ligand (human P2X2 receptor [1]; GCaMP kinetic assay)	pEC50 (human P2X2 receptor [1]; [5]) [M]	EC50 (human P2X2 receptor [1]; [5]) [nM]	EC50 (P2X2 [2]) [nM]	IC50 (P2X2 [4]) [nM]
–	2′(3′)-O-(4-Benzoylbenzoyl)adenosine-5′-triphosphate [BzATP]	less than 50%	5.89 ± 0.096	1280	–	–
–	Nc1nc(Cl)nc2c1ncn2[C@@H]1O[C@H](COP(=O)(O)OP(=O)(O)OP(=O)(O)O)[C@@H](O)[C@H]1O [2-Chloro ATP, 2-Chloro-Adenosinetriphosphate]	–	–	1000	2500	–
26900	Cc1ccc(C(=O)Nc2ccc(S(=O)(=O)O)c3cc(S(=O)(=O)O)cc(S(=O)(=O)O)c23)cc1NC(=O)c1cccc(NC(=O)Nc2cccc(C(=O)Nc3cc(C(=O)Nc4ccc(S(=O)(=O)O)c5cc(S(=O)(=O)O)cc(S(=O)(=O)O)c45)ccc3C)c2)c1 [suramin]	–	–	–	–	10000

— publication PMC11063903, “Engineering a human P2X2 receptor with altered ligand selectivity in yeast” (The Journal of Biological Chemistry, 2024)
